# Laboratory results reported in paper PMC8498107 (Frontiers in Molecular Neuroscience, 2021).
# Assays:
# [1] = target: T1, GlyR α1β^A455P + eGFP-gephyrin (Homo sapiens, UniProt P23415+P48167, A477P); format: cell-based
# T1 construct: Full-length cDNAs encoding the human wild-type (WT) or mutated GlyR β variants; expressed in transfected cells; host or cells: HEK-293
# Experimental: (§1) Full-length cDNAs encoding the human wild-type (WT) or mutated GlyR β variants (β^x) (with x = Y252S, S321F, and A455P) were cloned into the eukaryotic expression vector pRK5 (gift from †P. Seeburg, Heidelberg) and mutagenesis was performed as previously described ([James et al., 2013]). GlyR β variants were further subcloned into pRK5 harboring a myc-epitope at the N-terminus 5′ of residues ^1KEKS^4 representing the first amino acids of the mature GlyR β sequence. eGFP-gephyrin constructs were previously described ([Harvey et al., 2004]). All expression constructs were fully sequenced to verify successful mutagenesis.
# (§2) HEK-293 cells were transiently transfected using a modified calcium-phosphate precipitation method. Transfection was performed at a confluency of 50–75%, 24 h after seeding of 200,000 cells on glass cover slips in 35 mm culture dishes or 1.5 × 10^6 cells per 10 cm dish. For 35 mm and 10 cm culture dishes GlyR α1, GlyR β or GlyR β variants and eGFP-gephyrin were transfected in a ratio of cDNAs 1:10:5, e.g., 0.2 μg α1, 2 μg β, and 1 μg of eGFP-gephyrin for 35 mm dishes. To label cellular compartments, low copy number vectors were used to exclude effects from overexpression [1 μg; dsRed MEM = fusion of sequence from neuromodulin (GAP-43) and dsRed to label the plasma membrane or dsRed ER = fusion construct of dsRed and calreticulin sequence to label the ER]. The DNA was supplied with 2.5 M CaCl2, 0.1x TE buffer and 2x HBS buffer (50 mM HEPES, 12 mM glucose, 10 mM KCl, 280 mM NaCl, 1.5 mM Na2HPO4) mixed and incubated for 20 min at room temperature. The medium was exchanged after 4–6 h and cells were used for experiments 24–48 h after transfection.
# (§3) Electrophysiological characterization was performed on transfected HEK-293 cells using the patch-clamp method for whole cell recordings. Experiments were performed at room temperature. […] Current responses were amplified with an EPC-9 amplifier (HEKA Elektronik GmbH, Lambrecht/Pfalz, Germany) and measured at a holding potential of −60 mV using PatchMaster Next software (HEKA Elektronik GmbH, Lambrecht/Pfalz, Germany).
# GlyR α1β^Y252S = target: T2, GlyR α1β^Y252S (Homo sapiens, UniProt P23415+P48167, Y274S); format: cell-based
# T2 construct: Full-length cDNAs encoding the human wild-type (WT) or mutated GlyR β variants; expressed in transfected cells; host or cells: HEK-293
# Experimental: as §1, §2, §3
# [2] = target: T3, GlyR α1β^S321F + eGFP-gephyrin (Homo sapiens, UniProt P23415+P48167, S343F); format: cell-based
# T3 construct: Full-length cDNAs encoding the human wild-type (WT) or mutated GlyR β variants; expressed in transfected cells; host or cells: HEK-293
# Experimental: as §1, §2, §3
# GlyR α1β (wild-type) = target: T4, GlyR α1β (wild-type) (Homo sapiens, UniProt P23415+P48167); format: cell-based
# T4 construct: Full-length cDNAs encoding the human wild-type (WT) or mutated GlyR β variants; expressed in transfected cells; host or cells: HEK-293
# Experimental: as §1, §2, §3
# GlyR α1β^A455P = target: T5, GlyR α1β^A455P (Homo sapiens, UniProt P23415+P48167, A477P); format: cell-based
# T5 construct: Full-length cDNAs encoding the human wild-type (WT) or mutated GlyR β variants; expressed in transfected cells; host or cells: HEK-293
# Experimental: as §1, §2, §3
# [3] = target: T6, GlyR α1β (wild-type) + eGFP-gephyrin (Homo sapiens, UniProt P23415+P48167); format: cell-based
# T6 construct: Full-length cDNAs encoding the human wild-type (WT) or mutated GlyR β variants; expressed in transfected cells; host or cells: HEK-293
# Experimental: as §1, §2, §3
# [4] = target: T7, GlyR α1β^Y252S + eGFP-gephyrin (Homo sapiens, UniProt P23415+P48167, Y274S); format: cell-based
# T7 construct: Full-length cDNAs encoding the human wild-type (WT) or mutated GlyR β variants; expressed in transfected cells; host or cells: HEK-293
# Experimental: as §1, §2, §3
# GlyR α1β^S321F = target: T8, GlyR α1β^S321F (Homo sapiens, UniProt P23415+P48167, S343F); format: cell-based
# T8 construct: Full-length cDNAs encoding the human wild-type (WT) or mutated GlyR β variants; expressed in transfected cells; host or cells: HEK-293
# Experimental: as §1, §2, §3
# [5] = system: heteromeric αβ channels versus homomeric α subunit GlyRs; design: method as in Pribilla et al., 1992; details: heteromeric αβ channels almost unaffected; ref Pribilla et al., 1992; cited from earlier work
# hyperekplexia phenotype = system: hyperekplexia phenotype; design: method as in Bode and Lynch, 2014; details: clinical, gain-of-function and loss-of-function mutations; ref Bode and Lynch, 2014; cited from earlier work
# α1β^x channels = assay: picrotoxinin block of the glycine-gated response, whole-cell patch-clamp in HEK-293 cells; format: cell-based, human; details: 100 μM glycine + 100 μM picrotoxinin compared to 100 μM glycine alone
# Experimental: as §1
# HEK-293 cells were transiently transfected using a modified calcium-phosphate precipitation method. Transfection was performed at a confluency of 50–75%, 24 h after seeding of 200,000 cells on glass cover slips in 35 mm culture dishes or 1.5 × 10^6 cells per 10 cm dish. […]
# (§4) Electrophysiological characterization was performed on transfected HEK-293 cells using the patch-clamp method for whole cell recordings. […] Current responses were amplified with an EPC-9 amplifier (HEKA Elektronik GmbH, Lambrecht/Pfalz, Germany) and measured at a holding potential of −60 mV using PatchMaster Next software (HEKA Elektronik GmbH, Lambrecht/Pfalz, Germany).
# GlyR α1 homomers = target: T9, GlyR α1 homomers (Homo sapiens, UniProt P23415); assay: as above; format: cell-based; details: 100 μM glycine + 100 μM picrotoxinin compared to 100 μM glycine alone
# T9 construct: expressed in transfected cells; host or cells: HEK-293
# T9 sequence (P23415 29-457): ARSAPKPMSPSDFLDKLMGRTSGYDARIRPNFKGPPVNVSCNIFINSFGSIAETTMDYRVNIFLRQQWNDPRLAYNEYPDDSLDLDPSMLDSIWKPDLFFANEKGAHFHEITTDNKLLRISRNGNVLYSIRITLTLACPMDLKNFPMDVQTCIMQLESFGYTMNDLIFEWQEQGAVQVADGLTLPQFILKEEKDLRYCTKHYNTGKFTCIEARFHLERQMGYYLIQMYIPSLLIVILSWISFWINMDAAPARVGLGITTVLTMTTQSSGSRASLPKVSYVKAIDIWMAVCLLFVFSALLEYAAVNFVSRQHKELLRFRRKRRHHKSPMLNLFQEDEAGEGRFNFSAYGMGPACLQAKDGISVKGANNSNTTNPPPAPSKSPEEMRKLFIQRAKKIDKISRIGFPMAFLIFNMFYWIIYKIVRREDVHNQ
# Experimental: as §2, with “The medium was exchanged after 4–6 h and cells were used for experiments 24–48 h after transfection.” left out
# as §4
# [6] = in the presence of eGFP-gephyrin, remaining current, 100 μM glycine + 100 μM picrotoxinin versus 100 μM glycine alone
# [7] = residual current, 100 μM picrotoxinin + 100 μM glycine versus 100 μM glycine alone
# T7 sequence (P48167 23-497 Y274S, one chain of several): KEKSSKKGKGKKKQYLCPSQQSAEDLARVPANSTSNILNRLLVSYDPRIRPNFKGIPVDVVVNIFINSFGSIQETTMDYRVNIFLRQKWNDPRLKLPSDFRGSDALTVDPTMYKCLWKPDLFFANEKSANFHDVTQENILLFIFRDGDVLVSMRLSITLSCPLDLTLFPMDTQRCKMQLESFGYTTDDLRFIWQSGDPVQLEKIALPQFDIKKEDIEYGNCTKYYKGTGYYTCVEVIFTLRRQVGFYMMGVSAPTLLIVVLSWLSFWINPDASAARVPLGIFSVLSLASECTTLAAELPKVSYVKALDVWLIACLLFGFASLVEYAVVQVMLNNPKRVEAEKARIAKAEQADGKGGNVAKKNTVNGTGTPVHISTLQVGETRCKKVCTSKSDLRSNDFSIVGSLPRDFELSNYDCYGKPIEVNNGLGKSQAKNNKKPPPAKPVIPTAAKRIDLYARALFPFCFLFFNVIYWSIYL
# T2 sequence (P48167 23-497 Y274S, one chain of several): as above
# T4 sequence (P48167 23-497, one chain of several): as the sequence (P48167 23-497 Y274S, one chain of several) above, with S252Y counted along it
# T6 sequence (P48167 23-497, one chain of several): as the sequence (P48167 23-497 Y274S, one chain of several) above, with S252Y counted along it
# T5 sequence (P48167 23-497 A477P, one chain of several): as the sequence (P48167 23-497 Y274S, one chain of several) above, with S252Y, A455P counted along it
# T8 sequence (P48167 23-497 S343F, one chain of several): as the sequence (P48167 23-497 Y274S, one chain of several) above, with S252Y, S321F counted along it
# T1 sequence (P48167 23-497 A477P, one chain of several): as the sequence (P48167 23-497 Y274S, one chain of several) above, with S252Y, A455P counted along it
# T3 sequence (P48167 23-497 S343F, one chain of several): as the sequence (P48167 23-497 Y274S, one chain of several) above, with S252Y, S321F counted along it
compound,measurement,setting,value
NCC(=O)O [glycine],Imax,[1],6.6 ± 1.1 nA
same,Imax,GlyR α1β^Y252S,4.7 ± 0.6 nA
same,Imax,[2],4.1 ± 0.7 nA
same,Imax,GlyR α1β (wild-type),4.1 ± 0.4 nA
same,Imax,GlyR α1β^A455P,9.5 ± 1.2 nA
same,Imax,[3],2.9 ± 1.0 nA
same,Imax,[4],3.7 ± 0.9 nA
same,Imax,GlyR α1β^S321F,5.1 ± 0.7 nA
picrotoxin,fold less effective on heteromeric αβ channels than on homomeric α subunit GlyRs,[5],50–200 fold
O=C1CN=C(c2ccccc2Cl)c2cc([N+](=O)[O-])ccc2N1 [clonazepam],treatment of the hyperekplexia phenotype,hyperekplexia phenotype,effective treatment in many cases
C=C(C)[C@@H]1[C@H]2OC(=O)[C@@H]1[C@]1(O)C[C@H]3O[C@]34C(=O)O[C@H]2[C@]14C [picrotoxinin],picrotoxinin block,α1β^x channels,0–19%
same,reduction in current amplitude of the original value (block of the glycine-gated response),GlyR α1 homomers,29.22%
same,Ipicrotoxinin + glycine/ Iglycine,[1]; [6],92 ± 17%
same,I 100 μM picrotoxinin + glycine/I 100 μM glycine,GlyR α1β^Y252S; [7],99 ± 19%
same,Ipicrotoxinin + glycine/ Iglycine,[2]; [6],73 ± 4%
same,I 100 μM picrotoxinin + glycine/I 100 μM glycine,GlyR α1β (wild-type); [7],90 ± 11%
same,I 100 μM picrotoxinin + glycine/I 100 μM glycine,GlyR α1β^A455P; [7],86 ± 10%
same,Ipicrotoxinin + glycine/ Iglycine,[3]; [6],72 ± 7%
same,Ipicrotoxinin + glycine/ Iglycine,[4]; [6],84 ± 9%
same,I 100 μM picrotoxinin + glycine/I 100 μM glycine,GlyR α1β^S321F; [7],111 ± 15%
